Data as given in ChEMBL document CHEMBL1697731, “Cheminformatics analysis of assertions mined from literature that describe drug-induced liver injury in different species” (Chem Res Toxicol, 2010).

Experiments:
Hepatotoxicity [1] = assay: Literature-mined compound from Fourches et al multi-species drug-induced liver injury (DILI) dataset, effect in non-rodents
Hepatotoxicity [2] = assay: Literature-mined compound from Fourches et al multi-species drug-induced liver injury (DILI) dataset, effect in humans; conditions: human
Hepatotoxicity [3] = assay: Literature-mined compound from Fourches et al multi-species drug-induced liver injury (DILI) dataset, effect in rodents; conditions: rodentia

| Molecule | Hepatotoxicity (Hepatotoxicity [1]) | Hepatotoxicity (Hepatotoxicity [2]) | Hepatotoxicity (Hepatotoxicity [3]) | Hepatotoxicity (Hepatotoxicity [1]; Liver) | Hepatotoxicity (Hepatotoxicity [2]; Liver) | Hepatotoxicity (Hepatotoxicity [3]; Liver) |
| --- | --- | --- | --- | --- | --- | --- |
| Nc1ccc(C(=O)O)cc1 [AMINOBENZOIC ACID] | no drug-induced liver injury reported | no drug-induced liver injury reported | drug-induced liver injury reported | – | – | – |
| NC(=O)c1ccc[n+]([C@@H]2O[C@H](COP(=O)([O-])OP(=O)(O)OC[C@H]3O[C@@H](n4cnc5c(N)ncnc54)[C@H](O)[C@@H]3O)[C@@H](O)[C@H]2O)c1 [NADIDE] | no drug-induced liver injury reported | no drug-induced liver injury reported | drug-induced liver injury reported | – | – | – |
| CC(C)(C)NC[C@H](O)COc1nsnc1N1CCOCC1 [TIMOLOL] | no drug-induced liver injury reported | drug-induced liver injury reported | no drug-induced liver injury reported | – | – | – |
| COC(=O)Nc1nc2ccc(C(=O)c3ccccc3)cc2[nH]1 [MEBENDAZOLE] | drug-induced liver injury reported | drug-induced liver injury reported | no drug-induced liver injury reported | – | – | – |
| COC(=O)[C@H]1[C@H]2C[C@@H]3c4[nH]c5cc(OC)ccc5c4CCN3C[C@H]2C[C@@H](OC(=O)c2cc(OC)c(OC)c(OC)c2)[C@@H]1OC [RESERPINE] | no drug-induced liver injury reported | no drug-induced liver injury reported | drug-induced liver injury reported | – | – | – |
| Cc1oc(-c2ccccc2)nc1CCOc1ccc(CC2C(=O)NOC2=O)cc1 (configuration not stated) [REGLITAZAR] | no drug-induced liver injury reported | no drug-induced liver injury reported | drug-induced liver injury reported | – | – | – |
| Nc1ccc(S(=O)(=O)Nc2ccccn2)cc1 [SULFAPYRIDINE] | no drug-induced liver injury reported | no drug-induced liver injury reported | drug-induced liver injury reported | – | – | – |
| CC#CCC(C)[C@H](O)/C=C/[C@@H]1[C@H]2C/C(=C/CCCC(=O)O)C[C@H]2C[C@H]1O (some centres not stated) [ILOPROST] | no drug-induced liver injury reported | no drug-induced liver injury reported | drug-induced liver injury reported | – | – | – |
| C=Cc1c(C)c2cc3nc(c(CC(=O)NC(CC(=O)O)C(=O)O)c4nc(cc5[nH]c(cc1[nH]2)c(C)c5CC)C(C)=C4C(=O)O)C(CCC(=O)O)C3C (configuration not stated) | no drug-induced liver injury reported | no drug-induced liver injury reported | drug-induced liver injury reported | – | – | – |
| CC(C)OC(=O)C(C)(C)Oc1ccc(C(=O)c2ccc(Cl)cc2)cc1 [FENOFIBRATE] | no drug-induced liver injury reported | drug-induced liver injury reported | drug-induced liver injury reported | – | – | – |
| C=CC(N)CCC(=O)O (configuration not stated) [VIGABATRIN] | no drug-induced liver injury reported | no drug-induced liver injury reported | drug-induced liver injury reported | – | – | – |
| O=S(=O)(c1cccc2cnccc12)N1CCCNCC1 [FASUDIL] | no drug-induced liver injury reported | drug-induced liver injury reported | drug-induced liver injury reported | – | – | – |
| NC(=O)N1c2ccccc2CC(=O)c2ccccc21 [OXCARBAZEPINE] | no drug-induced liver injury reported | drug-induced liver injury reported | no drug-induced liver injury reported | – | – | – |
| COc1c2occc2c(OC)c2c(=O)cc(C)oc12 [KHELLIN] | no drug-induced liver injury reported | no drug-induced liver injury reported | drug-induced liver injury reported | – | – | – |
| CC(=O)N1CCN(c2ccc(OCC3COC(Cn4ccnc4)(c4ccc(Cl)cc4Cl)O3)cc2)CC1 (configuration not stated) [KETOCONAZOLE] | drug-induced liver injury reported | drug-induced liver injury reported | drug-induced liver injury reported | – | – | – |
| CC(C(=O)O)c1ccc(-c2ccccc2)c(F)c1 (configuration not stated) [FLURBIPROFEN] | drug-induced liver injury reported | no drug-induced liver injury reported | drug-induced liver injury reported | – | – | – |
| COc1nc(C)nc(Cl)c1N=C1NCCN1 [MOXONIDINE] | no drug-induced liver injury reported | no drug-induced liver injury reported | drug-induced liver injury reported | – | – | – |
| C=CCC1(CC(C)C)C(=O)NC(=O)NC1=O [BUTALBITAL] | no drug-induced liver injury reported | drug-induced liver injury reported | no drug-induced liver injury reported | – | – | – |
| CCn1cc(C(=O)O)c(=O)c2cnc(N3CCNCC3)nc21 [PIPEMIDIC ACID] | no drug-induced liver injury reported | drug-induced liver injury reported | no drug-induced liver injury reported | – | – | – |
| CCN(CC)CCCC(C)Nc1ccnc2cc(Cl)ccc12 (configuration not stated) [CHLOROQUINE] | drug-induced liver injury reported | drug-induced liver injury reported | drug-induced liver injury reported | – | – | – |

| Molecule | Hepatotoxicity (Hepatotoxicity [1]) | Hepatotoxicity (Hepatotoxicity [2]) | Hepatotoxicity (Hepatotoxicity [3]) | Hepatotoxicity (Hepatotoxicity [1]; Liver) | Hepatotoxicity (Hepatotoxicity [2]; Liver) | Hepatotoxicity (Hepatotoxicity [3]; Liver) |
| --- | --- | --- | --- | --- | --- | --- |
| CC/C=C\C/C=C\C/C=C\C/C=C\C/C=C\C/C=C\CCC(=O)O [DOCONEXENT] | no drug-induced liver injury reported | drug-induced liver injury reported | drug-induced liver injury reported | – | – | – |
| NC(=O)C[S+]([O-])C(c1ccccc1)c1ccccc1 (configuration not stated) [MODAFINIL] | no drug-induced liver injury reported | drug-induced liver injury reported | no drug-induced liver injury reported | – | – | – |
| COCCc1ccc(OCC(O)CNC(C)C)cc1 (configuration not stated) [METOPROLOL] | no drug-induced liver injury reported | drug-induced liver injury reported | drug-induced liver injury reported | – | – | – |
| O=C(O)COc1ccc(C(=O)c2cccs2)c(Cl)c1Cl | no drug-induced liver injury reported | drug-induced liver injury reported | drug-induced liver injury reported | – | – | – |
| NCCc1ccc(O)c(O)c1 [DOPAMINE] | – | – | – | drug-induced liver injury reported | drug-induced liver injury reported | drug-induced liver injury reported |
| NC(=O)c1cnccn1 [PYRAZINAMIDE] | no drug-induced liver injury reported | drug-induced liver injury reported | drug-induced liver injury reported | – | – | – |
| CC1=C(C(=O)O)N2C(=O)[C@@H](NC(=O)[C@H](N)c3ccc(O)cc3)[C@H]2SC1 [CEFADROXIL] | no drug-induced liver injury reported | drug-induced liver injury reported | no drug-induced liver injury reported | – | – | – |
| NCCCCCC(=O)O [AMINOCAPROIC ACID] | no drug-induced liver injury reported | drug-induced liver injury reported | no drug-induced liver injury reported | – | – | – |
| CC(C)(C#N)c1cc(Cn2cncn2)cc(C(C)(C)C#N)c1 [ANASTROZOLE] | no drug-induced liver injury reported | drug-induced liver injury reported | no drug-induced liver injury reported | – | – | – |
| CC(=O)NO [ACETOHYDROXAMIC ACID] | no drug-induced liver injury reported | no drug-induced liver injury reported | drug-induced liver injury reported | – | – | – |
| C[S+](C)[O-] [DIMETHYL SULFOXIDE] | drug-induced liver injury reported | drug-induced liver injury reported | drug-induced liver injury reported | – | – | – |
| CN1CCN(CCCN2c3ccccc3Sc3ccccc32)CC1 [PERAZINE] | no drug-induced liver injury reported | drug-induced liver injury reported | no drug-induced liver injury reported | – | – | – |
| Cc1ncc2n1-c1ccc(Cl)cc1C(c1ccccc1F)=NC2 [MIDAZOLAM] | no drug-induced liver injury reported | no drug-induced liver injury reported | drug-induced liver injury reported | – | – | – |
| O=C1CCCC(=O)C1C(=O)c1ccc(C(F)(F)F)cc1[N+](=O)[O-] [NITISINONE] | drug-induced liver injury reported | no drug-induced liver injury reported | drug-induced liver injury reported | – | – | – |
| COc1ccc2[nH]c([S+]([O-])Cc3ncc(C)c(OC)c3C)nc2c1 (configuration not stated) [OMEPRAZOLE] | no drug-induced liver injury reported | drug-induced liver injury reported | drug-induced liver injury reported | – | – | – |
| CC[C@H]1OC(=O)[C@H](C)[C@@H](O[C@H]2C[C@@](C)(OC)[C@@H](O)[C@H](C)O2)[C@H](C)[C@@H](O[C@@H]2O[C@H](C)C[C@H](N(C)C)[C@H]2O)[C@](C)(OC)C[C@@H](C)C(=O)[C@H](C)[C@@H](O)[C@]1(C)O [CLARITHROMYCIN] | no drug-induced liver injury reported | drug-induced liver injury reported | drug-induced liver injury reported | – | – | – |
| C#CCN(C)[C@H](C)Cc1ccccc1 [SELEGILINE] | no drug-induced liver injury reported | drug-induced liver injury reported | no drug-induced liver injury reported | – | – | – |
| CCC1(c2ccccc2)NC(=O)N(C)C1=O (configuration not stated) [MEPHENYTOIN] | no drug-induced liver injury reported | no drug-induced liver injury reported | drug-induced liver injury reported | – | – | – |
| VITAMIN B12 | no drug-induced liver injury reported | drug-induced liver injury reported | no drug-induced liver injury reported | – | – | – |
